Experimental data published in publication PMC10251843 (Animals : an Open Access Journal from MDPI, 2023).
Marks after values point to notes of the source that are not given here.

Columns and labels:
Conditions in all cases: mean ± SD
plasma protein [1] = experiment: Plasma protein binding ratio (PPBR) by ultrafiltration, yellow catfish plasma; format: in vitro ADME, yellow catfish (Pelteobagrus fulvidraco)
Description: (§1) The detailed procedures and the pretreatment of the ultrafiltration unit (UFU) were in line with the previous reports. In brief, the nonspecific absorption (NSB) of UFU was first checked before and after pretreatment of 5% Tween 80. […] Firstly, 100 μL of the sample was used to evaluate the initial concentration before centrifugation. […] To reduce the NSB of UFU, 100 μL of 5% Tween 80 was used to treat UFU at 25 °C for 5 min, and 0.5 mL of physiological saline was used to wash off Tween 80. The NSB of UFU was repeatedly determined again in light of the above-mentioned method.
(§2) The samples of sterile physiological saline were detected without extraction by HPLC. As for the samples of plasma, 0.1 mL of plasma was decanted into a 10 mL centrifugation tube. The extraction method is the same as the reported literature.
(§3) The proportion of the mobile phase was 82:18 (water containing 0.2% formic acid and pure acetonitrile, v/v), following the flow rate of 0.8 mL/min. The excitation wavelength was 280 nm. The emission wavelength was 450 nm.

plasma protein [2] = experiment: Plasma protein binding ratio (PPBR) by ultrafiltration, largemouth bass plasma; format: in vitro ADME, largemouth bass (Micropterus salmoides)
Description: as §1, §2, §3

plasma protein [3] = experiment: Plasma protein binding ratio (PPBR) by ultrafiltration, grass carp plasma; format: in vitro ADME, grass carp (Ctenopharyngodon idella)
Description: as §1, §2, §3

[4] = 1 μg/mL, 25 °C, n = 3, listed as Enrofloxacin
[5] = 5 μg/mL, 15 °C, n = 3, listed as Enrofloxacin
[6] = 5 μg/mL, 20 °C, n = 3, listed as Enrofloxacin
[7] = 5 μg/mL, 25 °C, n = 3, listed as Enrofloxacin
[8] = 10 μg/mL, 15 °C, n = 3, listed as EF
[9] = 10 μg/mL, 15 °C, n = 3, listed as Enrofloxacin
[10] = 10 μg/mL, 20 °C, n = 3, listed as Enrofloxacin
[11] = 10 μg/mL, 25 °C, n = 3, listed as Enrofloxacin
[12] = 1 μg/mL, 15 °C, n = 3, listed as EF

In the case of `CCN1CCN(c2cc3c(cc2F)c(=O)c(C(=O)O)cn3C2CC2)CC1` [Enrofloxacin (EF), Enrofloxacin], the “PPBRs (%)” value (plasma protein [1]; 1 μg/mL, 20 °C, n = 3) is reported as 46.10 ± 3.13 ^a %, the “PPBRs (%)” value (plasma protein [1]; 1 μg/mL, 20 °C, n = 3, listed as EF) is reported as 46.10% and the “PPBRs (%)” value (plasma protein [1]; 1 μg/mL, 25 °C, n = 3) is reported as 43.90 ± 3.62 ^a %. The “PPBRs (%)” value (plasma protein [1]; 1 μg/mL, 25 °C, n = 3, listed as EF) was 43.9%, the “PPBRs (%)” value (plasma protein [1]; [4]) was 43.90 ± 3.62 ^ab % and the “PPBRs (%)” value (plasma protein [1]; 5 μg/mL, 15 °C, n = 3) was 22.53 ± 6.86 ^b %. For the same compound, the “PPBRs (%)” value (plasma protein [1]; 5 μg/mL, 15 °C, n = 3, listed as EF) was 22.53%, the “PPBRs (%)” value (plasma protein [1]; [5]) was 22.53 ± 6.86 ^a % and the “PPBRs (%)” value (plasma protein [1]; 5 μg/mL, 20 °C, n = 3) was 21.24 ± 6.93 ^b %. The “PPBRs (%)” value (plasma protein [1]; [6]) was 21.24 ± 6.93 ^a %, the “PPBRs (%)” value (plasma protein [1]; 5 μg/mL, 25 °C, n = 3) was 17.29 ± 0.69 ^b % and the “PPBRs (%)” value (plasma protein [1]; 5 μg/mL, 25 °C, n = 3, listed as EF) was 17.29%. The “PPBRs (%)” value (plasma protein [1]; [7]) was 17.29 ± 0.69 ^a %, the “PPBRs (%)” value (plasma protein [1]; 10 μg/mL, 15 °C, n = 3) was 9.66 ± 4.09 ^c % and the “PPBRs (%)” value (plasma protein [1]; [8]) was 9.66%. The “PPBRs (%)” value (plasma protein [1]; [9]) was 9.66 ± 4.09 ^ab %, the “PPBRs (%)” value (plasma protein [1]; 10 μg/mL, 20 °C, n = 3) was 13.52 ± 4.74 ^b % and the “PPBRs (%)” value (plasma protein [1]; 10 μg/mL, 20 °C, n = 3, listed as EF) was 13.52%. The “PPBRs (%)” value (plasma protein [1]; [10]) was 13.52 ± 4.74 ^a %, the “PPBRs (%)” value (plasma protein [1]; 10 μg/mL, 25 °C, n = 3) was 4.36 ± 0.58 ^c % and the “PPBRs (%)” value (plasma protein [1]; 10 μg/mL, 25 °C, n = 3, listed as EF) was 4.36%. For the same compound, the “PPBRs (%)” value (plasma protein [1]; [11]) was 4.36 ± 0.58 ^b %, the “PPBRs (%)” value (plasma protein [2]; 1 μg/mL, 15 °C, n = 3) was 35.11 ± 5.18 ^a % and the “PPBRs (%)” value (plasma protein [2]; [12]) was 35.11%. For the same compound, the “PPBRs (%)” value (plasma protein [2]; 1 μg/mL, 20 °C, n = 3) was 37.93 ± 6.11 ^a %, the “PPBRs (%)” value (plasma protein [2]; 1 μg/mL, 25 °C, n = 3) was 39.12 ± 1.72 ^a % and the “PPBRs (%)” value (plasma protein [2]; 5 μg/mL, 15 °C, n = 3) was 14.39 ± 0.61 ^b %. The “PPBRs (%)” value (plasma protein [2]; [5]) was 14.39 ± 0.61 ^a %, the “PPBRs (%)” value (plasma protein [2]; 5 μg/mL, 20 °C, n = 3) was 17.46 ± 2.82 ^b % and the “PPBRs (%)” value (plasma protein [2]; [6]) was 17.46 ± 2.82 ^ab %. The “PPBRs (%)” value (plasma protein [2]; 5 μg/mL, 25 °C, n = 3) was 23.20 ± 5.87 ^b %, the “PPBRs (%)” value (plasma protein [2]; 10 μg/mL, 15 °C, n = 3) was 9.30 ± 5.15 ^C % and the “PPBRs (%)” value (plasma protein [2]; [8]) was 9.30%. For the same compound, the “PPBRs (%)” value (plasma protein [2]; [9]) was 9.30 ± 5.15 ^a %, the “PPBRs (%)” value (plasma protein [2]; 10 μg/mL, 20 °C, n = 3) was 10.84 ± 1.08 ^C % and the “PPBRs (%)” value (plasma protein [2]; [10]) was 10.84 ± 1.08 ^a %. The “PPBRs (%)” value (plasma protein [2]; 10 μg/mL, 25 °C, n = 3) was 7.77 ± 2.10 ^C %, the “PPBRs (%)” value (plasma protein [2]; [11]) was 7.77 ± 2.10 ^a % and the “PPBRs (%)” value (plasma protein [3]; 1 μg/mL, 15 °C, n = 3) was 60.52 ± 0.99 ^a %. For the same compound, the “PPBRs (%)” value (plasma protein [3]; [12]) was 60.52%, the “PPBRs (%)” value (plasma protein [3]; 1 μg/mL, 20 °C, n = 3) was 51.27 ± 1.56 ^a % and the “PPBRs (%)” value (plasma protein [3]; 1 μg/mL, 20 °C, n = 3, listed as Enrofloxacin) was 51.27 ± 1.56 ^b %. For the same compound, the “PPBRs (%)” value (plasma protein [3]; 1 μg/mL, 25 °C, n = 3) was 50.09 ± 2.06 ^a %, the “PPBRs (%)” value (plasma protein [3]; [4]) was 50.09 ± 2.06 ^b % and the “PPBRs (%)” value (plasma protein [3]; 5 μg/mL, 15 °C, n = 3) was 33.77 ± 0.07 ^B %. The “PPBRs (%)” value (plasma protein [3]; [5]) was 33.77 ± 0.07 ^a %, the “PPBRs (%)” value (plasma protein [3]; 5 μg/mL, 20 °C, n = 3) was 22.07 ± 1.19 ^B % and the “PPBRs (%)” value (plasma protein [3]; 5 μg/mL, 25 °C, n = 3) was 23.36 ± 3.86 ^B %. For the same compound, the “PPBRs (%)” value (plasma protein [3]; [7]) was 23.36 ± 3.86 ^a %, the “PPBRs (%)” value (plasma protein [3]; 10 μg/mL, 15 °C, n = 3) was 16.95 ± 1.81 ^C % and the “PPBRs (%)” value (plasma protein [3]; [8]) was 16.95%. For the same compound, the “PPBRs (%)” value (plasma protein [3]; [9]) was 16.95 ± 1.81 ^a %, the “PPBRs (%)” value (plasma protein [3]; 10 μg/mL, 20 °C, n = 3) was 8.34 ± 2.29 ^C % and the “PPBRs (%)” value (plasma protein [3]; [10]) was 8.34 ± 2.29 ^b %. For the same compound, the “PPBRs (%)” value (plasma protein [3]; 10 μg/mL, 25 °C, n = 3) was 5.52 ± 1.99 ^C % and the “PPBRs (%)” value (plasma protein [3]; [11]) was 5.52 ± 1.99 ^B %.
